For 18 compounds, IC50 results are on record in patent US9604940B2 (Chroma Therapeutics Ltd., priority 2012, dated 2017).

One assay has as its system MCP-1. In words: MCSF-stimulation of human whole blood, MCP-1 levels by sandwich ELISA. The assay is classed as cell-based. The conditions noted are these: inhibitor 2 hours before MCSF 50 ng/ml, 22 hrs, MCP-1 in cell-free supernatants, read-out: Inhibitor activity versus MCP-1. The method, then: Macrophage Colony-Stimulating Factor (MCSF)-Stimulation of Human Whole Blood
Whole blood was taken by venous puncture using heparinised vacutainers (Becton Dickinson) and diluted in an equal volume of RPMI1640 tissue culture media (Sigma). 100 μl was plated in V-bottomed 96 well tissue culture treated plates. 2 hours after the addition of the inhibitor in 100 μl of RPMI1640 media, the blood was stimulated with MCSF (Peprotech: #300-25-10 uG) at a final concentration of 50 ng/ml and incubated at 37° C. in 5% CO2 for 22 hrs. MCP-1 levels were measured from cell-free supernatants by sandwich ELISA developed from MCP-1/CCL2 Duoset (R&D Systems #DY279). Additional reagents required for ELISA were purchased from Sigma, (BSA: A3059, 10×PBS: D1408, Tween20: P5927) R&D Systems, (colour reagent: #DY999 and stop solution: #DY994) and Costar (96-well EIA plates: #2592). Assays were carried out following the manufacturer's instructions with the following modifications: Cell-free supernatants were diluted 30:70 in reagent diluent before assay. All incubations except capture antibody were carried out with shaking at 550 rpm. 3 washes were carried out between steps, and incubation times were blocking 1.5 hr, sample/standard and detection antibody incubations 2 hr, HRP incubation 30 min, colour development 20 min. • IC50 values were allocated to one of five ranges as follows: • Range A: IC50<100 nM • Range B: 100 nM<IC50<300 nM • Range C: 300 nM<1050<1000 nM • Range D: 1000 nM<IC50<5000 nM • Range E: IC50>5000 nM • NT=not tested
(In general: An ELISA detects its analyte on a solid surface through an enzyme-linked reagent.)

A further assay addresses T1, CSF1R (FMS) (Homo sapiens, UniProt P07333).
T1 construct: purchased Invitrogen (Paisley, UK)
In words: CSF1R (FMS) kinase activity, Z'-LYTE biochemical assay (Invitrogen). The conditions noted are these: ATP at or close to Km, 60 minute reaction at room temperature, read-out: Inhibitor activity versus CSF-1. The procedure: CSF1R (FMS) Kinase Activity
The ability of compounds to inhibit CSF1R (FMS) kinase activity was measured in an assay performed by Invitrogen (Paisley, UK). The Z′-LYTE™ biochemical assay employs a fluorescence-based, coupled-enzyme format and is based on the differential sensitivity of phosphorylated and non-phosphorylated peptides to proteolytic cleavage. The peptide substrate is labelled with two fluorophores—one at each end—that make up a FRET pair. In the primary reaction, the kinase transfers the gamma-phosphate of ATP to a single […] residue in a synthetic FRET-peptide. In the secondary reaction, a site-specific protease recognizes and cleaves non-phosphorylated FRET-peptides. Phosphorylation of FRET-peptides suppresses cleavage by the Development Reagent. Cleavage disrupts FRET between the donor (i.e. coumarin) and acceptor (i.e. fluorescein) fluorophores on the FRET-peptide, whereas uncleaved, phosphorylated FRET-peptides maintain FRET. A […] method, which calculates the ratio (the Emission Ratio) of donor emission to acceptor emission after excitation of the donor fluorophore at 400 nm, is used to quantitate reaction progress.
The final 10 μL Kinase Reaction consists of 0.12-12.3 ng CSF1R (FMS), 2 μM Tyr 01 Peptide and ATP in 50 mM HEPES pH 7.5, 0.01% BRIJ-35, 10 mM MgCl2, 1 mM EGTA. The assay is performed at an ATP concentration at, or close to, the Km. After the 60 minute Kinase Reaction incubation at room temperature, 5 μL of a 1:256 dilution of Development Reagent is added. The assay plate is incubated for a further 60 minutes at room temperature and read on a fluorescence plate reader.
Duplicate data points are generated from a ⅓ log dilution series of a stock solution of test compound in DMSO. Nine dilutions steps are made from a top concentration of 10 mM, and a ‘no compound’ blank is included. Data is collected and analysed using XLfit software from IDBS. The dose response curve is curve fitted to model number 205 (sigmoidal dose-response model). From the curve generated, the concentration giving 50% inhibition is determined and reported.

T1 sequence (P07333 20-972): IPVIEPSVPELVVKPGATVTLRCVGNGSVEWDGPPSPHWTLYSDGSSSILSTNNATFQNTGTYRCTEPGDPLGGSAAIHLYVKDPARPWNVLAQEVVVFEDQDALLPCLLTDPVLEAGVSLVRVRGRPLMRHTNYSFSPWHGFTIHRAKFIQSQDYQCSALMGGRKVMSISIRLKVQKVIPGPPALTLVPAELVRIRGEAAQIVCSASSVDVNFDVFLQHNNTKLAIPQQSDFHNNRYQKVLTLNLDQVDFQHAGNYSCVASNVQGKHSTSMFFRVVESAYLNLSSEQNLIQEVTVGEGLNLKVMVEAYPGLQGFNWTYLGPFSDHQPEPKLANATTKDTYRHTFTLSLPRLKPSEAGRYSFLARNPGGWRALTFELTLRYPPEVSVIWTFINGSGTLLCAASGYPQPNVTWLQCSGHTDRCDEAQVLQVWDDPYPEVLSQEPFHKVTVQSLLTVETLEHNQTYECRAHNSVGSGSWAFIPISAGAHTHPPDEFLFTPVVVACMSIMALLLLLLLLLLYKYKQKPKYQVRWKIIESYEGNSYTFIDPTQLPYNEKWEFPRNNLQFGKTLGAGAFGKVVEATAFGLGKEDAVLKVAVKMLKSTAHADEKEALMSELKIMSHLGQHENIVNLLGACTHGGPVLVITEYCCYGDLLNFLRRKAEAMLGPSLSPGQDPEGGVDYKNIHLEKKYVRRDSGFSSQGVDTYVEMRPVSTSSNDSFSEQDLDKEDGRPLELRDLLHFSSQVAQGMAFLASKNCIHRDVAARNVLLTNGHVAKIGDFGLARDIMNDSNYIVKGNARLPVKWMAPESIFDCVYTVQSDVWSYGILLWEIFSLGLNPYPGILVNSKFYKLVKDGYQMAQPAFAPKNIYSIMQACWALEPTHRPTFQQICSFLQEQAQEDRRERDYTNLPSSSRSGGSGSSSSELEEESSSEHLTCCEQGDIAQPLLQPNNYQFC

In the case of `Nc1ncc(-c2cccc(CN3CCN[C@@H](C(=O)OC4CCCC4)C3)c2)nc1NCc1c(Cl)cccc1Cl` [Example 37, Cyclopentyl (2R)-4-(3-{5-amino-6-[(2,6-dichlorobenzyl)amino]pyrazin-2-yl}benzyl)piperazine-2-carboxylate], the values for the IC50 in the assay on MCP-1 and on CSF1R (FMS) were less than 100 nM and 300 to 1000 nM, respectively.
The matching figures for `CC(C)C[C@H](NCc1cccc(-c2cnc(N)c(NCc3c(Cl)cccc3Cl)n2)c1)C(=O)OC1CCCC1` [Example 38, Cyclopentyl N-(3-{5-amino-6-[(2,6-dichlorobenzyl)amino]pyrazin-2-yl}benzyl)-L-leucinate]: greater than 5000 nM and greater than 5000 nM.
For the compound `CC(C)C[C@H](NCc1cccc(-c2cnc(N)c(NCc3c(Cl)cccc3Cl)n2)c1)C(=O)OC(C)(C)C` [Example 39, tert-Butyl N-(3-{5-amino-6-[(2,6-dichlorobenzyl)amino]pyrazin-2-yl}benzyl)-L-leucinate], the IC50 in the assay on MCP-1 and at CSF1R (FMS) was greater than 5000 nM each time.
With `CC(C)(NCc1cccc(-c2cnc(N)c(NCc3c(Cl)cccc3Cl)n2)c1)C(=O)OC1CCCC1` [Example 40, Cyclopentyl N-(3-{5-amino-6-[(2,6-dichlorobenzyl)amino]pyrazin-2-yl}benzyl)-2-methylalaninate], the IC50 with MCP-1 was 1000 to 5000 nM; at CSF1R (FMS) it was greater than 5000 nM.
On to `Nc1ncc(-c2cccc(CNC3(C(=O)OC4CCCC4)CCC3)c2)nc1NCc1c(Cl)cccc1Cl` [Example 42, Cyclopentyl 1-[(3-{5-amino-6-[(2,6-dichlorobenzyl)amino]pyrazin-2-yl}benzyl)amino]cyclobutanecarboxylate di-formate], for which the IC50 in the assay with MCP-1 was 300 to 1000 nM; at CSF1R (FMS), greater than 5000 nM.
The like results for `CC(C)(C)OC[C@H](NCc1cccc(-c2cnc(N)c(NCc3c(Cl)cccc3Cl)n2)c1)C(=O)OC1CCCC1` [Example 43, Cyclopentyl N-(3-{5-amino-6-[(2,6-dichlorobenzyl)amino]pyrazin-2-yl}benzyl)-O-tert-butyl-L-serinate] were, in that order, greater than 5000 nM and greater than 5000 nM.
The matching figures for `CC(C)(C)OC[C@H](NCc1cccc(-c2cnc(N)c(NCc3c(Cl)cccc3Cl)n2)c1)C(=O)OC(C)(C)C` [Example 44, tert-Butyl N-(3-{5-amino-6-[(2,6-dichlorobenzyl)amino]pyrazin-2-yl}benzyl)-O-tert-butyl-L-serinate]: greater than 5000 nM and greater than 5000 nM.
The matching figures for `C[C@H](NCc1cccc(-c2cnc(N)c(NCc3c(Cl)cccc3Cl)n2)c1)C(=O)OC(C)(C)C` [Example 45, tert-Butyl N-(3-{5-amino-6-[(2,6-dichlorobenzyl)amino]pyrazin-2-yl}benzyl)-L-alaninate]: 1000 to 5000 nM and 1000 to 5000 nM.
With `CC(C)(C)OC(=O)[C@H]1CC(NCc2cccc(-c3cnc(N)c(NCc4c(Cl)cccc4Cl)n3)c2)CCN1` (stereo partly drawn) [Example 46, tert-Butyl (2R)-4-[(3-{5-amino-6-[(2,6-dichlorobenzyl)amino]pyrazin-2-yl}benzyl)amino]piperidine-2-carboxylate], the IC50 is 300 to 1000 nM in the assay on MCP-1 and less than 100 nM on CSF1R (FMS).
In the case of `CC(C)(C)OC(=O)[C@@H]1CC(NCc2cccc(-c3cnc(N)c(NCc4c(Cl)cccc4Cl)n3)c2)CCN1` (stereo partly drawn) [Example 47, tert-Butyl (2S)-4-[(3-{5-amino-6-[(2,6-dichlorobenzyl)amino]pyrazin-2-yl}benzyl)amino]piperidine-2-carboxylate di-formate], the results for the IC50 in the assay with MCP-1 and on CSF1R (FMS) were 300 to 1000 nM and less than 100 nM, respectively.
The like results for `CC(C)(NCCc1cccc(-c2cnc(N)c(NCc3c(Cl)cccc3Cl)n2)c1)C(=O)OC1CCCC1` [Example 48, Cyclopentyl N-[2-(3-{5-amino-6-[(2,6-dichlorobenzyl)amino]pyrazin-2-yl}phenyl)ethyl]-2-methylalaninate] were, in that order, 300 to 1000 nM and 1000 to 5000 nM.
The like results for `Nc1ncc(-c2cccc(CCNC3(C(=O)OC4CCCC4)CCC3)c2)nc1NCc1c(Cl)cccc1Cl` [Example 49, Cyclopentyl 1-{[2-(3-{5-amino-6-[(2,6-dichlorobenzyl)amino]pyrazin-2-yl}phenyl)ethyl]amino}cyclobutanecarboxylate] were, in that order, 1000 to 5000 nM and 1000 to 5000 nM.
The like results for `Nc1ncc(-c2cccc(CCNC3CCN[C@@H](C(=O)OC4CCCC4)C3)c2)nc1NCc1c(Cl)cccc1Cl` (stereo partly drawn) [Example 50, Cyclopentyl (2R)-4-{[2-(3-{5-amino-6-[(2,6-dichlorobenzyl)amino]pyrazin-2-yl}phenyl)ethyl]amino}piperidine-2-carboxylate] were, in that order, 100 to 300 nM and less than 100 nM.
Take `Nc1ncc(-c2cccc(CCNC3CCN[C@H](C(=O)OC4CCCC4)C3)c2)nc1NCc1c(Cl)cccc1Cl` (stereo partly drawn) [Example 51, Cyclopentyl (2S)-4-{[2-(3-{5-amino-6-[(2,6-dichlorobenzyl)amino]pyrazin-2-yl}phenyl)ethyl]amino}piperidine-2-carboxylate]: the IC50 was 100 to 300 nM in the assay with MCP-1 and less than 100 nM on CSF1R (FMS).
The matching figures for `Nc1ncc(-c2cnn(CCNC3CCN[C@@H](C(=O)OC4CCCC4)C3)c2)nc1NCc1c(Cl)cccc1Cl` (stereo partly drawn) [Example 55, Cyclopentyl (2R)-4-{[2-(4-{5-amino-6-[(2,6-dichlorobenzyl)amino]pyrazin-2-yl}-1H-pyrazol-1-yl)ethyl]amino}piperidine-2-carboxylate di-formate]: 100 to 300 nM and 100 to 300 nM.
The matching figures for `Nc1ncc(-c2cnn(CCNC3CCN[C@H](C(=O)OC4CCCC4)C3)c2)nc1NCc1c(Cl)cccc1Cl` (stereo partly drawn) [Example 56, Cyclopentyl (2S)-4-{[2-(4-{5-amino-6-[(2,6-dichlorobenzyl)amino]pyrazin-2-yl}-1H-pyrazol-1-yl)ethyl]amino}piperidine-2-carboxylate di-formate]: 300 to 1000 nM and 100 to 300 nM.
In the case of `CC(C)C[C@H](NCCn1cc(-c2cnc(N)c(NCc3c(Cl)cccc3Cl)n2)cn1)C(=O)OC1CCCC1` [Example 57, Cyclopentyl N-[2-(4-{5-amino-6-[(2,6-dichlorobenzyl)amino]pyrazin-2-yl}-1H-pyrazol-1-yl)ethyl]-L-leucinate], the IC50 with MCP-1 and on CSF1R (FMS) was 1000 to 5000 nM in each case.
`CC(C)C[C@H](NCCn1cc(-c2cnc(N)c(NCc3c(Cl)cccc3Cl)n2)cn1)C(=O)OC(C)(C)C` [Example 58, tert-Butyl N-[2-(4-{5-amino-6-[(2,6-dichlorobenzyl)amino]pyrazin-2-yl}-1H-pyrazol-1-yl)ethyl]-L-leucinate]: the IC50 in the assay with MCP-1 and at CSF1R (FMS) was greater than 5000 nM throughout.
